Experimental data reported in US20210395242A1, “HETEROCYCLIC COMPOUNDS AS AHR MODULATORS” (JAGUAHR THERAPEUTICS PTE LTD, priority 2018, published 2021).
pIC50: −log10 of the molar value.

Legend:
[1] = biological target: T1, AhR (Homo sapiens, UniProt P35869); experiment: AhR antagonism in U937 cells (Promega P450-Glo assay); assay type: cell-based; details: inhibition of 300 μM KYNA response, 24 hrs, CYP1A1 activity readout (Luciferin-CEE), arithmetic mean of pIC50
T1 construct: endogenous in cells; host or cells: U937 cells
T1 sequence (P35869 11-848): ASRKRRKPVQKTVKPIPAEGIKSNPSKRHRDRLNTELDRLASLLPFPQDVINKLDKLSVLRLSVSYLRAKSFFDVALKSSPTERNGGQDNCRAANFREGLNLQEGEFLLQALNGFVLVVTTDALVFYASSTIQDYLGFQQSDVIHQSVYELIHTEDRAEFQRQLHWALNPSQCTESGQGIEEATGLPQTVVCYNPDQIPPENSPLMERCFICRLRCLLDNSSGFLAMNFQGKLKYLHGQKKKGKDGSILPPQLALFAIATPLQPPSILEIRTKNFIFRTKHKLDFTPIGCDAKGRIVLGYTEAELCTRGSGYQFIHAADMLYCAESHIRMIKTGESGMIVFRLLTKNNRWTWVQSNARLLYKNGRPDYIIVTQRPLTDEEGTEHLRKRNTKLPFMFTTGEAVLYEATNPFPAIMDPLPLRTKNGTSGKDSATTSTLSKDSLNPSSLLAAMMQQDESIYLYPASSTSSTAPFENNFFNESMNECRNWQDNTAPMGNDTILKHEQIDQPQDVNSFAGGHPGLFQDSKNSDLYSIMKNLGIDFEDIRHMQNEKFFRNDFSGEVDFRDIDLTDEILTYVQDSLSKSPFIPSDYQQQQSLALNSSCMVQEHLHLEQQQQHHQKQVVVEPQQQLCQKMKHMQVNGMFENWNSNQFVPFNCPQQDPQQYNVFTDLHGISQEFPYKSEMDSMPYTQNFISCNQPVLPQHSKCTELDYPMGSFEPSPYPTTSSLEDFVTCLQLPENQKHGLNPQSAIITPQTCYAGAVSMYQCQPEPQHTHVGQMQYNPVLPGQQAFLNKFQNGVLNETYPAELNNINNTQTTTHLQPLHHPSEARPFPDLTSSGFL
Procedure: (§1) The compounds of the examples were tested in selected biological assays two or more times. Data are reported as the arithmetic mean of the pIC50 (−log10IC50) values, where IC50 is defined as the concentration of compound producing a 50% inhibition of the agonist (KYNA) response.
In Vitro Assay 1: AhR Antagonism in U937 Cells (Promega P450-Glo™ Assay)
AhR antagonism was assessed in U937 cells (myeloid lineage cell line derived from a human histiocytic lymphoma). Ligand binds the AhR in the cytoplasm, and the AhR-ligand complex translocates to the nucleus and forms a heterodimer with AhR nuclear translocator (Arnt). This complex binds the xenobiotic response element (XRE) in the 5′ upstream region of the CYP1A1 promoter, enhancing CYP1A1 expression. CYP1A1 activity is subsequently determined by assessing the conversion of Luciferin-CEE to luciferin, which in turn reacts with luciferase to produce light. The amount of light produced is directly proportional to cytochrome P450 activity. U937 cells in Ultraculture serum free media (Lonza) were plated at 100,000 cells per well in a round bottom 96 well tissue culture plate. Seven concentrations of test compound (final [DMSO]1%) were added and incubated for 10 minutes before the addition of 300 μM KYNA. The plates were then placed in an incubator at 37° C., >85% humidity, 5% CO2 for 24 hrs. After aspiration of the supernatant the CYP1A1 substrate Luciferin-CEE ([Final] 83 μM) was added and incubated for 3 hrs before the reaction was stopped by adding luciferin detection reagent and luminescence was read after 20 minutes.

[2] = biological target: T2, CYP1A1 (Homo sapiens, UniProt P04798); experiment: CYP1A1 inhibition assay (Promega P450-Glo, Cypex CYP1A1 bactosomes); assay type: biochemical; details: Luciferin-CEE 30 μM, 0.2 mM NADPH, 37° C. 10 minutes, arithmetic mean of pIC50
T2 construct: purchased Cypex
T2 sequence (P04798 1-512): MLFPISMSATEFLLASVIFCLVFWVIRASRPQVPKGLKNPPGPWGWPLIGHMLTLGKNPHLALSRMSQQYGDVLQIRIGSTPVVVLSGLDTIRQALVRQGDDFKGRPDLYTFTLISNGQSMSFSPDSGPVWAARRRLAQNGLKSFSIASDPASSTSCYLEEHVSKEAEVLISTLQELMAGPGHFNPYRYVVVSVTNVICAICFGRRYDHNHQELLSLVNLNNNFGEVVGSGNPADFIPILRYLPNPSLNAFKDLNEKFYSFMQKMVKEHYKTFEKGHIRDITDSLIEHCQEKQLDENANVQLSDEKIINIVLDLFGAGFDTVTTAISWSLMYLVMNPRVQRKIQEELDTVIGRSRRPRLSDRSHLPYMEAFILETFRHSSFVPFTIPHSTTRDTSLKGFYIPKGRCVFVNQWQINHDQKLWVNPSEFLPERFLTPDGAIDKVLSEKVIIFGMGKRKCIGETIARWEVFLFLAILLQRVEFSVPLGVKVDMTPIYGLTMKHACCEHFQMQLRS
Procedure: as §1
In vitro assay 2: CYP1A1 inhibition assay The direct CYP1A1 inhibitory activity of test compounds was also assessed using the Promega P450-Glo™ assay system. Seven concentrations of test compound were added to a ½ area white 96 well plate. Cypex CYP1A1 bactosomes ([final] 0.5 pmol) and CYP1A1 substrate Luciferin-CEE ([final] 30 μM) were prepared in 0.1M potassium phosphate buffer and incubated with test compounds at 37° C. for 5 minutes. 0.2 mM NADPH was then added to the plates and incubated at 37° C., for 10 minutes. The reaction was stopped by adding luciferin detection reagent and luminescence was read after 20 minutes.

| pIC50 [1] | pIC50 [2] | SMILES |
| --- | --- | --- |
| 7.10 | 6.00 | CNC(=O)c1cccc2nc(-c3ccc(NC(=O)c4ccnn4C)cc3)oc12 [Example 4, N-methyl-2-(4-(1-methyl-1H-pyrazole-5-carboxamido)phenyl) benzo[d]oxazole-7-carboxamide] |
| – | 5.90 | COC(=O)c1cccc2nc(-c3ccc(NC(=O)c4ccnn4C)cc3)oc12 [Example 3, methyl 2-(4-(1-methyl-1H-pyrazole-5-carboxamido)phenyl) benzo[d]oxazole-7-carboxylate] |
| 7.00 | 6.10 | Cn1nccc1C(=O)Nc1ccc(-c2nc3cccc(CO)c3o2)cc1 [Example 13, N-(4-(7-(hydroxymethyl)benzo[d]oxazol-2-yl)phenyl)-1-methyl-1H-pyrazole-5-carboxamide] |
| 7.80 | 5.60 | Cn1nccc1C(=O)Nc1ccc(-c2nc3cccc(C#N)c3o2)cc1 [Example 16, N-(4-(7-Cyanobenzo[d]oxazol-2-yl)phenyl)-1-methyl-1H-pyrazole-5-carboxamide] |
| 6.40 | 6.00 | CCNC(=O)c1cccc2nc(-c3ccc(NC(=O)c4ccnn4C)cc3)oc12 [Example 15, N-Ethyl-2-(4-(1-methyl-1H-pyrazole-5-carboxamido)phenyl) benzo[d]oxazole-7-carboxamide] |
| 7.40 | 6.20 | Cc1cccc2nc(-c3ccc(NC(=O)c4ccnn4C)cc3)oc12 [Example 6, 1-methyl-N-(4-(7-methylbenzo[d]oxazol-2-yl)phenyl)-1H-pyrazole-5-carboxamide] |
| 7.20 | 6.20 | COCCn1nccc1C(=O)Nc1ccc(-c2nc3cccc(C)c3o2)cc1 [Example 24, 1-(2-methoxyethyl)-N-(4-(7-methylbenzo[d]oxazol-2-yl)phenyl)-1H-pyrazole-5-carboxamide] |
| 7.90 | 6.10 | Cn1nccc1C(=O)Nc1ccc(-c2nc3cccc(Cl)c3o2)cc1 [Example 11, N-(4-(7-chlorobenzo[d]oxazol-2-yl)phenyl)-1-methyl-1H-pyrazole-5-carboxamide] |
| 7.00 | 6.10 | COCCn1nccc1C(=O)Nc1ccc(-c2nc3ccccc3o2)cc1 [Example 2, N-(4-(benzo[d]oxazol-2-yl)phenyl)-1-(2-methoxyethyl)-1H-pyrazole-5-carboxamide] |

The next lines start with the compound.

| SMILES | pIC50 [1] | pIC50 [2] |
| --- | --- | --- |
| Cn1nccc1C(=O)Nc1ccc(-c2nc3cccc(C(C)(C)O)c3o2)cc1 [Example 18, N-(4-(7-(2-hydroxypropan-2-yl)benzo[d]oxazol-2-yl)phenyl)-1-methyl-1H-pyrazole-5-carboxamide] | 6.44 | 6.60 |
| Cn1nccc1C(=O)Nc1ccc(-c2nc3cccc(Cl)c3[nH]2)cc1 [Example 19, N-(4-(7-chloro-1H-benzo[d]imidazol-2-yl)phenyl)-1-methyl-1H-pyrazole-5-carboxamide] | 6.84 | 6.50 |
| Cc1cc(NC(=O)c2ccnn2C)ccc1-c1nc2c(C)cccc2o1 [Example 23, 1-methyl-N-(3-methyl-4-(4-methylbenzo[d]oxazol-2-yl)phenyl)-1H-pyrazole-5-carboxamide] | 7.76 | 5.90 |
| Cn1nccc1C(=O)Nc1ccc(-c2nc3cccc(C(N)=O)c3o2)cc1 [Example 14, 2-(4-(1-methyl-1H-pyrazole-5-carboxamido)phenyl) benzo [d]oxazole-7-carboxamide] | 6.70 | 5.60 |
| Cc1nc(-c2ccc(NC(=O)c3ccnn3C)cc2)oc1C [Example 5, N-(4-(4,5-dimethyloxazol-2-yl)phenyl)-1-methyl-1H-pyrazole-5-carboxamide] | 7.80 | 6.00 |
| Cn1nccc1C(=O)Nc1ccc(-c2nc3ccccc3s2)cc1 [Example 21, N-(4-(benzo[d]thiazol-2-yl)phenyl)-1-methyl-1H-pyrazole-5-carboxamide] | 7.30 | 6.50 |
| Cc1cccc2oc(-c3ccc(NC(=O)c4ccnn4C)cc3)nc12 [Example 17, 1-methyl-N-(4-(4-methylbenzo[d]oxazol-2-yl)phenyl)-1H-pyrazole-5-carboxamide] | 7.50 | 6.00 |
| Cc1cc(NC(=O)c2ccon2)ccc1-c1nc2cccc(C)c2o1 [Example 8, N-(3-methyl-4-(7-methylbenzo[d]oxazol-2-yl)phenyl) isoxazole-3-carboxamide] | 7.10 | 6.55 |
| Cc1cc(NC(=O)c2ccnn2C)ccc1-c1nc2cccc(C)c2o1 [Example 9, 1-methyl-N-(3-methyl-4-(7-methylbenzo[d]oxazol-2-yl)phenyl)-1H-pyrazole-5-carboxamide] | 8.10 | 6.80 |
| Cn1nccc1C(=O)Nc1ccc(-c2nc3cccc(C(=O)NCCc4c[nH]c5ccccc45)c3o2)cc1 [Example 12, N-(2-(1H-indol-3-yl)ethyl)-2-(4-(1-methyl-1H-pyrazole-5-carboxamido)phenyl)benzo[d]oxazole-7-carboxamide] | 7.30 | 6.60 |
| CCn1c(-c2ccc(NC(=O)c3ccnn3C)cc2)nc2ccccc21 [Example 1, N-(4-(1-ethyl-1H-benzo[d]imidazol-2-yl)phenyl)-1-methyl-1H-pyrazole-5-carboxamide] | 7.20 | 6.60 |
| Cn1nccc1C(=O)Nc1ccc(-c2nc3ccccc3o2)cc1 [Example 10, N-(4-(benzo[d]oxazol-2-yl)phenyl)-1-methyl-1H-pyrazole-5-carboxamide] | 7.60 | 6.70 |
| Cn1nccc1C(=O)Nc1ccc(-c2nc3ccccc3[nH]2)cc1 [Example 20, N-(4-(1H-benzo[d]imidazol-2-yl)phenyl)-1-methyl-1H-pyrazole-5-carboxamide] | 6.80 | 6.65 |
| Cc1cc(NC(=O)c2ccon2)ccc1-c1nc2ccccc2o1 [Example 7, N-(4-(benzo[d]oxazol-2-yl)-3-methylphenyl)isoxazole-3-carboxamide] | 7.10 | 6.20 |
| Cc1cc(NC(=O)c2ccnn2C)ccc1-c1nc2ccccc2o1 [Example 22, N-(4-(benzo[d]oxazol-2-yl)-3-methylphenyl)-1-methyl-1H-pyrazole-5-carboxamide] | 8.10 | 6.70 |
